According to PubChem BioAssay (NCI):
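The compound was tested at five concentrations on cells cultured in 96-well plates, with a 48-hour exposure period. TGI marks complete inhibition of growth.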

What was measured:
Assay in all cases: NCI anticancer screen, dose series, 48 h
[1] = test system: 786-0 renal
[2] = test system: A498 renal
[3] = test system: A549 NSCLC
[4] = test system: ACHN renal
[5] = test system: BT-549 breast
[6] = test system: CAKI-1 renal
[7] = test system: CCRF-CEM leukemia
[8] = test system: COLO 205 colon
[9] = test system: DLD-1 colon
[10] = test system: DMS 114 small cell lung
[11] = test system: DMS 273 small cell lung
[12] = test system: DU-145 prostate
[13] = test system: EKVX NSCLC
[14] = test system: HCC-2998 colon
[15] = test system: HCT-116 colon
[16] = test system: HCT-15 colon
[17] = test system: HL-60(TB) leukemia
[18] = test system: HOP-18 NSCLC
[19] = test system: HOP-62 NSCLC
[20] = test system: HOP-92 NSCLC
[21] = test system: HS 578T breast
[22] = test system: HT29 colon
[23] = test system: IGROV1 ovarian
[24] = test system: K-562 leukemia
[25] = test system: KM12 colon
[26] = test system: KM20L2 colon
[27] = test system: LOX IMVI melanoma
[28] = test system: LXFL 529 NSCLC
[29] = test system: M14 melanoma
[30] = test system: M19-MEL melanoma
[31] = test system: MALME-3M melanoma
[32] = test system: MCF7 breast
[33] = test system: MDA-MB-231 breast
[34] = test system: MDA-MB-435
[35] = test system: MOLT-4 leukemia
[36] = test system: NCI-H226 lung
[37] = test system: NCI-H23 lung
[38] = test system: NCI-H460 lung
[39] = test system: NCI-H522 lung
[40] = test system: NCI/ADR-RES ovarian
[41] = test system: OVCAR-3 ovarian
[42] = test system: OVCAR-4 ovarian
[43] = test system: OVCAR-5 ovarian
[44] = test system: OVCAR-8 ovarian
[45] = test system: PC-3 prostate
[46] = test system: RPMI-8226 leukemia
[47] = test system: RXF 393 renal
[48] = test system: SF-268 CNS
[49] = test system: SF-295 CNS
[50] = test system: SF-539 CNS
[51] = test system: SK-MEL-2 melanoma
[52] = test system: SK-MEL-28 melanoma
[53] = test system: SK-MEL-5 melanoma
[54] = test system: SK-OV-3 ovarian
[55] = test system: SN12C renal
[56] = test system: SNB-19 CNS
[57] = test system: SNB-75 CNS
[58] = test system: SR leukemia
[59] = test system: SW-620 colon
[60] = test system: T-47D breast
[61] = test system: TK-10 renal
[62] = test system: U251 CNS
[63] = test system: UACC-257 melanoma
[64] = test system: UACC-62 melanoma
[65] = test system: UO-31 renal
[66] = test system: XF 498 CNS
[67] = test system: MDA-N

Work on `Cc1nc2ccccc2c(=O)n1/N=C(\N=Nc1cc(Cl)ccc1Cl)c1ccccc1` yielded a TGI [1] greater than 100 µM, a TGI [2] greater than 100 µM and a TGI [3] greater than 100 µM. It also gave a TGI [4] greater than 100 µM, a TGI [5] greater than 100 µM and a TGI [6] greater than 100 µM. For the same compound, the TGI [7] was greater than 100 µM, the TGI [8] was greater than 100 µM and the TGI [9] was greater than 100 µM. For the same compound, the TGI [10] was 82.4 µM, the TGI [11] was greater than 100 µM and the TGI [12] was greater than 100 µM. It also gave a TGI [13] greater than 100 µM, a TGI [14] greater than 100 µM and a TGI [15] greater than 31.6 µM. It also gave a TGI [16] greater than 100 µM, a TGI [17] greater than 100 µM and a TGI [18] of 44.9 µM. The TGI [19] was greater than 100 µM, the TGI [20] was greater than 100 µM and the TGI [21] was greater than 100 µM. For the same compound, the TGI [22] was greater than 88.7 µM, the TGI [23] was greater than 100 µM and the TGI [24] was greater than 100 µM. It also gave a TGI [25] of 25.8 µM, a TGI [26] of 4.47 µM and a TGI [27] greater than 100 µM. The TGI [28] was greater than 100 µM, the TGI [29] was greater than 100 µM and the TGI [30] was greater than 100 µM. The TGI [31] was greater than 100 µM, the TGI [32] was greater than 100 µM and the TGI [33] was greater than 100 µM. It also gave a TGI [34] of 44.1 µM, a TGI [35] greater than 100 µM and a TGI [36] greater than 100 µM. For the same compound, the TGI [37] was greater than 100 µM, the TGI [38] was greater than 100 µM and the TGI [39] was 81.7 µM. It also gave a TGI [40] greater than 100 µM, a TGI [41] greater than 100 µM and a TGI [42] greater than 100 µM. For the same compound, the TGI [43] was greater than 100 µM, the TGI [44] was greater than 100 µM and the TGI [45] was greater than 100 µM. It also gave a TGI [46] greater than 100 µM, a TGI [47] greater than 100 µM and a TGI [48] greater than 100 µM. The TGI [49] was greater than 100 µM, the TGI [50] was greater than 100 µM and the TGI [51] was greater than 100 µM. It also gave a TGI [52] greater than 100 µM, a TGI [53] greater than 100 µM and a TGI [54] greater than 100 µM. It also gave a TGI [55] greater than 83.3 µM, a TGI [56] greater than 31.6 µM and a TGI [57] of 74.1 µM. For the same compound, the TGI [58] was greater than 100 µM, the TGI [59] was greater than 73.8 µM and the TGI [60] was greater than 100 µM. It also gave a TGI [61] greater than 100 µM, a TGI [62] greater than 75.2 µM and a TGI [63] of 66 µM. For the same compound, the TGI [64] was greater than 100 µM, the TGI [65] was greater than 31.6 µM and the TGI [66] was greater than 100 µM.
Work on `O=C1Cc2cn[nH]c2-c2ccccc2N1` yielded a TGI [1] greater than 100 µM, a TGI [2] greater than 100 µM and a TGI [3] greater than 64.2 µM. It also gave a TGI [4] greater than 55.7 µM, a TGI [5] of 61.5 µM and a TGI [6] greater than 35.2 µM. For the same compound, the TGI [7] was 53.1 µM, the TGI [8] was greater than 64 µM and the TGI [12] was greater than 100 µM. For the same compound, the TGI [13] was 95.4 µM, the TGI [14] was 67.3 µM and the TGI [15] was greater than 83.5 µM. For the same compound, the TGI [16] was greater than 63.3 µM, the TGI [17] was greater than 78.3 µM and the TGI [19] was greater than 100 µM. For the same compound, the TGI [20] was greater than 30.7 µM, the TGI [21] was greater than 100 µM and the TGI [22] was greater than 100 µM. It also gave a TGI [23] greater than 100 µM, a TGI [24] of 56.6 µM and a TGI [25] greater than 67.3 µM. The TGI [27] was 33.6 µM, the TGI [29] was greater than 55.2 µM and the TGI [31] was greater than 69.7 µM. For the same compound, the TGI [32] was greater than 100 µM, the TGI [33] was greater than 62 µM and the TGI [34] was 59.7 µM. It also gave a TGI [67] greater than 100 µM, a TGI [35] of 49.7 µM and a TGI [36] greater than 100 µM. The TGI [37] was greater than 100 µM, the TGI [38] was greater than 69.8 µM and the TGI [39] was 65.8 µM. It also gave a TGI [40] greater than 100 µM, a TGI [41] of 37.5 µM and a TGI [42] greater than 75.1 µM. It also gave a TGI [43] greater than 57.5 µM, a TGI [44] greater than 100 µM and a TGI [45] greater than 100 µM. It also gave a TGI [46] of 66.1 µM, a TGI [47] of 72.3 µM and a TGI [48] greater than 100 µM. The TGI [49] was greater than 100 µM, the TGI [50] was greater than 100 µM and the TGI [51] was greater than 83.8 µM. The TGI [52] was greater than 100 µM, the TGI [53] was greater than 59.7 µM and the TGI [54] was greater than 100 µM. For the same compound, the TGI [55] was greater than 63.9 µM, the TGI [56] was greater than 100 µM and the TGI [57] was greater than 100 µM. The TGI [58] was 71.8 µM, the TGI [59] was 32.4 µM and the TGI [60] was greater than 100 µM. It also gave a TGI [61] of 91.5 µM, a TGI [62] greater than 61.6 µM and a TGI [63] greater than 60.5 µM. It also gave a TGI [64] of 63.5 µM and a TGI [65] greater than 100 µM.
